From the NIST ThermoML archive (doi:10.1016/j.fluid.2016.07.004)

Settings: Liquid, X-ray view cell

c1ccccc1 [benzene]
Settings	vapor or sublimation pressure [kPa]
378.35 K	205
401.25 K	366
421.85 K	572
437.45 K	778
460.35 K	1173
480.45 K	1622
500.15 K	2183
520.05 K	2877
